Test results from PubChem BioAssay (NCI).
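Protocol summary: plate cells (96-well), add compound at 5 concentrations, incubate 48 h, interpolate endpoints linearly. TGI is the concentration that stops growth completely.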

Tests used:
Assay in all cases: NCI tumour cell line growth inhibition, 48 h
NCI-H522 lung = tested on: NCI-H522 lung
LOX IMVI melanoma = tested on: LOX IMVI melanoma
A498 renal = tested on: A498 renal
BT-549 breast = tested on: BT-549 breast
SF-295 CNS = tested on: SF-295 CNS
HCC-2998 colon = tested on: HCC-2998 colon
NCI/ADR-RES ovarian = tested on: NCI/ADR-RES ovarian
UACC-257 melanoma = tested on: UACC-257 melanoma
TK-10 renal = tested on: TK-10 renal
OVCAR-5 ovarian = tested on: OVCAR-5 ovarian
SK-MEL-5 melanoma = tested on: SK-MEL-5 melanoma
HCT-116 colon = tested on: HCT-116 colon
SNB-75 CNS = tested on: SNB-75 CNS
IGROV1 ovarian = tested on: IGROV1 ovarian
EKVX NSCLC = tested on: EKVX NSCLC
MDA-MB-231 breast = tested on: MDA-MB-231 breast
KM12 colon = tested on: KM12 colon
SNB-19 CNS = tested on: SNB-19 CNS
MALME-3M melanoma = tested on: MALME-3M melanoma
SN12C renal = tested on: SN12C renal

Row | Compound | TGI (NCI-H522 lung) | TGI (LOX IMVI melanoma) | TGI (A498 renal) | TGI (BT-549 breast) | TGI (SF-295 CNS) | TGI (HCC-2998 colon) | TGI (NCI/ADR-RES ovarian) | TGI (UACC-257 melanoma) | TGI (TK-10 renal) | TGI (OVCAR-5 ovarian) | TGI (SK-MEL-5 melanoma) | TGI (HCT-116 colon) | TGI (SNB-75 CNS) | TGI (IGROV1 ovarian) | TGI (EKVX NSCLC) | TGI (MDA-MB-231 breast) | TGI (KM12 colon) | TGI (SNB-19 CNS) | TGI (MALME-3M melanoma) | TGI (SN12C renal)
1 | N#CC(C#N)=C1C(=Cc2ccc(OCCCCCCCCCCSSCCCCCCCCCCOc3ccc(C=C4C(=C(C#N)C#N)c5ccccc5C4=C(C#N)C#N)cc3)cc2)C(=C(C#N)C#N)c2ccccc21 | 34.7 µM | 35.6 µM | 48.5 µM | 38.9 µM | 45.7 µM | 28.9 µM | 38.8 µM | > 100 µM | > 100 µM | 35.5 µM | 52.3 µM | 30.8 µM | > 100 µM | > 100 µM | 43.1 µM | > 100 µM | 78.1 µM | – | – | –
2 | CSC1=C(C#N)C(=S)N=C(N)C1C(=O)Nc1ccc(C)cc1 (centres undefined) | 94.8 µM | > 100 µM | > 100 µM | > 100 µM | – | > 100 µM | > 100 µM | > 100 µM | > 100 µM | > 100 µM | > 100 µM | > 100 µM | > 100 µM | > 100 µM | > 100 µM | > 100 µM | > 100 µM | > 100 µM | > 100 µM | > 100 µM
3 | NC(=O)c1ccc(C(=O)Nc2ccc([As](=O)(O)O)cc2)cc1 | > 100 µM | > 100 µM | > 100 µM | > 100 µM | > 100 µM | – | > 100 µM | – | > 100 µM | > 100 µM | > 100 µM | > 100 µM | > 100 µM | > 100 µM | > 100 µM | > 100 µM | > 100 µM | > 100 µM | > 100 µM | > 100 µM
4 | COC(=O)NC(Nc1ccccn1)(C(F)(F)F)C(F)(F)F | > 100 µM | > 100 µM | > 100 µM | > 100 µM | – | > 100 µM | > 100 µM | > 100 µM | > 100 µM | > 100 µM | > 100 µM | > 100 µM | > 100 µM | > 100 µM | > 100 µM | > 100 µM | > 100 µM | > 100 µM | > 100 µM | –
5 | CC1=C(C(=O)OCCO[N+](=O)[O-])C(c2cccc([N+](=O)[O-])c2)C(C(=O)OC(C)C)=C(C)N1 (centres undefined) | 34.9 µM | 31.6 µM | 46.8 µM | 27.1 µM | 56.6 µM | 29.6 µM | 34.3 µM | 25.2 µM | 42.9 µM | 30.4 µM | 26.1 µM | 22.2 µM | – | 33.9 µM | 48.9 µM | 26.1 µM | 23.1 µM | 75.4 µM | 51.9 µM | 36.4 µM
6 | COc1cc2c(cc1OC)[C@@H]1[C@H](C#N)C(=O)C(C)(C)N1CC2 | > 100 µM | > 100 µM | > 100 µM | > 100 µM | > 100 µM | > 100 µM | > 100 µM | > 100 µM | > 100 µM | > 100 µM | > 100 µM | > 100 µM | – | > 100 µM | > 100 µM | > 100 µM | > 100 µM | > 100 µM | > 100 µM | > 100 µM
7 | O=c1c2cccnc2n2n1Cc1ccccc1C2 | > 100 µM | > 100 µM | > 100 µM | > 100 µM | > 100 µM | > 100 µM | > 100 µM | > 100 µM | > 100 µM | > 100 µM | > 100 µM | > 100 µM | > 100 µM | > 100 µM | > 100 µM | > 100 µM | – | – | > 100 µM | > 100 µM
8 | O=c1ccn([C@@H]2C[C@H]2CO)c(=O)[nH]1 | > 100 µM | > 100 µM | > 100 µM | > 100 µM | – | > 100 µM | > 100 µM | > 100 µM | > 100 µM | > 100 µM | > 100 µM | > 100 µM | > 100 µM | > 100 µM | > 100 µM | > 100 µM | > 100 µM | > 100 µM | > 100 µM | > 100 µM
9 | Nc1ccccc1-c1noc(=O)[nH]1 | > 100 µM | > 100 µM | > 100 µM | > 100 µM | > 100 µM | > 100 µM | > 100 µM | > 100 µM | > 100 µM | > 100 µM | > 100 µM | > 100 µM | > 100 µM | > 100 µM | > 100 µM | > 100 µM | > 100 µM | > 100 µM | – | > 100 µM
10 | C[N+](C)(CCCn1ccnc1[N+](=O)[O-])CCCn1ccnc1[N+](=O)[O-] | > 100 µM | > 100 µM | > 100 µM | > 100 µM | > 100 µM | – | > 100 µM | > 100 µM | > 100 µM | > 100 µM | > 100 µM | > 100 µM | > 100 µM | > 100 µM | > 100 µM | > 100 µM | > 100 µM | – | > 100 µM | > 100 µM
